Laboratory results: patent publication US9827219B2, “Compositions and methods for lowering levels of high-sensitivity C-reactive protein (HS-CRP) in a subject” (priority 2012, dated 2017)

System: cognitive performance in subjects with AAMI
Test: CDR computerized cognitive test battery, 6-week pilot study in Age-Associated Memory Impairment (Example 1)
Format: in vivo, human
Details: for Quality of Episodic Secondary Memory, LS mean difference vs placebo: overall
Description: A single-center, 6-week, double-blind, randomizes, parallel-group, placebo-controlled, dose-ranging pilot study was performed to evaluate the efficacy, tolerability, and safety of >96% ethyl-EPA in subjects with subjective and objective memory impairment according to generally accepted criteria for Age-Associated Memory Impairment (“AAMI”). The primary objective of the study was to determine the effect of >96% ethyl-EPA 1 g, 2 g, and 4 g daily, compared to placebo, on cognitive performance in subjects with AAMI.
The population for this study was men and women between ages 50 and 70 with self-reported complaints of memory loss, subjective and objective cognitive impairment with a score of at least one standard deviation below that of the mean for age-matched elderly population as determined by the total score of between 13 and 20 from the Paired Associated Learning (“PAL”) subset of the Wechsler Memory Scale, evidence of adequate intellectual function as determined by a scaled score of at least 9 (raw score of at least 32) on the Vocabulary subtest of the Wechsler Adult Intelligence Scale and absence of dementia as determined by a score of 24 or higher on the Mini-Mental State Examination (“MMSE”).
Ninety-four subjects were randomized into one of six groups: 1 g E-EPA daily (n=23), 2 g E-EPA daily (n=24), 4 g E-EPA daily (n=24), 1 g placebo daily (n=7), 2 g placebo daily (n=8), and 4 g placebo daily (n=8). E-EPA was provided as 500 mg soft gel capsules containing >96% E-EPA and 0.2% dl-α-tocopherol as an antioxidant. Placebo capsules contained 467 mg of liquid paraffin and 0.2% dl-α-tocopherol. Ninety-one subjects completed the study. Two subjects in the 2 g E-EPA group and one subject in the 2 g placebo group discontinued the study.
The study consisted of a screening visit, a training visit, and four study visits. At the screening visit, subjects' eligibility was determined through cognitive tests (verbal paired associated learning [PAL] subscale, vocabulary subtest, Memory Assessment Clinics Questionnaire [MAC-Q], mini mental state evaluation [MMSE] and MINI [mini international neuropsychiatric interview; sections 1 and 2 of Diagnostic and Statistical Manual of Mental Disorders, 4th Edition (DSM-IV) plus dysthymia]), haematology, clinical chemistry and 12-lead electrocardiogram (ECG). At the training visit, subjects were shown how to use the CDR computerized system. Subjects took study drug for 6 weeks and on Days 0, 14, 28 and 42, subjects underwent the CDR cognitive test battery.
A selection of tasks from the CDR computerized cognitive assessment system were administered at Visit 2 (training visit), Visit 3 (baseline), Visit 4 (Day 14), Visit 5 (Day 28) and Visit 6 (Day 42). Parallel forms of the tests were presented at each testing session. All tasks were computer-controlled, the information presented on high resolution monitors, and the responses recorded via a response model containing two buttons: one marked ‘no’ and the other ‘yes’. Five CDR composite scores were used as the primary/secondary outcome variables. The task titles were: • Word Presentation • Immediate Word Recall • Picture Presentation • Simple Reaction Time • Digit Vigilance • Choice Reaction Time • Spatial Working Memory • Numeric Working Memory • Delayed Word Recall • Word Recognition • Picture Recognition • Bond-Lader Visual Analogue Scales of Mood and Alertness • Screen, Using the Computer Mouse
To ensure consistency of approach, full training on the cognitive tests and CDR test battery was provided to study site staff and study subjects. The results of each variable were automatically recorded using the machine interface developed by CDR.
Summary statistics were provided for the ITT and Study Per Protocol Populations separately for all composite scores, major and supportive variables. Summary statistics were performed for both the unadjusted and difference from baseline data (i.e. the difference from the time matched predose assessments on Day 0). […]

[1] = ITT, ANCOVA, 1, 2, 4 g daily vs placebo
[2] = post-hoc vs corresponding placebo
[3] = post-hoc vs corresponding placebo, 1 g, Days 14 and 28

CC/C=C\C/C=C\C/C=C\C/C=C\C/C=C\CCCC(=O)OCC [AMR101, all-cis eicosa-5,8,11,14,17-pentaenoic acid ethyl ester]
Self-Rated Contentment, LS mean difference to placebo (ITT): no statistically significant effects | Immediate Word Recall Accuracy, LS mean difference vs placebo (ITT, 1 g, AM 1, p=0.040): statistically significant decreases | Immediate Word Recall Accuracy, LS mean difference vs placebo (ITT, 1 g, Day 14, p=0.028): statistically significant decreases | Picture Recognition Speed, LS mean difference vs placebo (ITT, 1 g, Day 14 at AM 2, p=0.084): trends for benefits versus placebo | Immediate Word Recall Accuracy, LS mean difference vs placebo (ITT, 1 g, Day 14 at PM 2, p=0.020): statistically significant decreases | Word Recognition Sensitivity Index, LS mean difference vs placebo (ITT, 1 g, Day 28, p=0.024): statistically significant decreases | Picture Recognition Speed, LS mean difference vs placebo (ITT, 1 g, Day 28 at AM 1, p=0.085): trends for benefits versus placebo | Picture Recognition Sensitivity Index, LS mean difference vs placebo (ITT, 1 g, Day 28 at AM 2, p=0.017): statistically significant decrease | Picture Recognition Sensitivity Index, LS mean difference vs placebo (ITT, 1 g, Day 28 at PM 2, p=0.040): statistically significant decrease | Quality of Episodic Secondary Memory, LS mean difference vs placebo (ITT, 1 g, p=0.040): statistically significant decreases versus placebo | Immediate Word Recall Accuracy, LS mean difference vs placebo (ITT, 2 g, AM 1, p=0.028): statistically significant decreases | Immediate Word Recall Accuracy, LS mean difference vs placebo (ITT, 2 g, Day 28, p=0.017): statistically significant decreases | Self-Rated Alertness, LS mean difference vs placebo (ITT, 2 g, Day 28, p=0.047): statistically significant decrease in ratings | Immediate Word Recall Accuracy, LS mean difference vs placebo (ITT, 2 g, Day 28 at AM 1, p=0.006): statistically significant decreases | Self-Rated Alertness, LS mean difference vs placebo (ITT, 2 g, Day 28 at AM 2, p=0.041): statistically significant decrease in ratings | Quality of Episodic Secondary Memory, LS mean difference vs placebo (ITT, 2 g, p=0.035): statistically significant decreases versus placebo | Spatial Working Memory Speed, LS mean difference vs placebo (ITT, 4 g, Day 14 at PM 1, p=0.048): statistically significant benefit versus placebo | Word Recognition Sensitivity Index, LS mean difference vs placebo (ITT, 4 g, Day 28 at PM 2, p=0.030): statistically significant decrease | Word Recognition Sensitivity Index, LS mean difference vs placebo (ITT, 4 g, Day 42, p=0.038): statistically significant decreases | Spatial Working Memory Speed, LS mean difference vs placebo (ITT, 4 g, Day 42 at AM 1, p=0.061): trend for a benefit | Word Recognition Sensitivity Index, LS mean difference vs placebo (ITT, 4 g, PM 2, p=0.045): statistically significant decrease | Continuity of Attention (ITT, ANCOVA): no statistically significant effect of treatment | Delayed Word Recall Accuracy (ITT, ANCOVA): no statistically significant effects of treatment | Digit Vigilance Targets Detected (ITT, ANCOVA): no statistically significant effect of treatment | Immediate Word Recall Accuracy (ITT, ANCOVA): no statistically significant effects of treatment | Numeric Working Memory Speed (ITT, ANCOVA): no statistically significant effects of treatment | Picture Recognition Sensitivity Index (ITT, ANCOVA): no statistically significant effects of treatment | Picture Recognition Speed (ITT, ANCOVA): no statistically significant effects of treatment | Quality of Episodic Secondary Memory (ITT, ANCOVA): no statistically significant effect of treatment | Self-Rated Alertness (ITT, ANCOVA): no statistically significant effect of treatment | Self-Rated Calmness (ITT, ANCOVA): no statistically significant effect of treatment | Spatial Working Memory Speed (ITT, ANCOVA): no statistically significant effects of treatment | Speed of Memory (ITT, ANCOVA): no statistically significant effects of treatment | Word Recognition Sensitivity Index (ITT, ANCOVA): no statistically significant effects of treatment | Word Recognition Speed (ITT, ANCOVA): no statistically significant effects of treatment | Digit Vigilance Speed [1]: no statistically significant effects of treatment | Power of Attention [1]: no statistically significant effect of treatment | Simple Reaction Time [1]: no statistically significant effects of treatment | Self-Rated Contentment (ITT, ANCOVA, p<0.001): statistically significant treatment by day interaction | Choice Reaction Time (ITT, ANCOVA, p=0.011): statistically significant treatment by day interaction | Spatial Working Memory Sensitivity Index (ITT, ANCOVA, p=0.015): statistically significant treatment by day interaction | Quality of Working Memory (ITT, ANCOVA, p=0.019): statistically significant treatment by day interaction | Numeric Working Memory Sensitivity Index (ITT, ANCOVA, p=0.089): statistical trend for a treatment by day interaction | Power of Attention, LS mean difference active vs placebo (ITT, any time-point): no LS mean difference between active treatment and placebo | Continuity of Attention (Study Per Protocol, ANCOVA): no statistically significant effect of treatment | Digit Vigilance Targets Detected (Study Per Protocol, ANCOVA, p=0.040): statistically significant treatment by time-point interaction | Self-Rated Contentment, LS mean difference to placebo (Study Per-Protocol): no statistically significant effects | Immediate Word Recall Accuracy, LS mean difference to placebo (Study Per-Protocol, 1 g, AM 1, p=0.038): statistically significant decreases | Immediate Word Recall Accuracy, LS mean difference to placebo (Study Per-Protocol, 1 g, AM 2, p=0.048): statistically significant decreases | Immediate Word Recall Accuracy, LS mean difference to placebo (Study Per-Protocol, 1 g, Day 14, p=0.024): statistically significant decreases | Immediate Word Recall Accuracy, LS mean difference to placebo (Study Per-Protocol, 1 g, Day 14 at PM 2, p=0.019): statistically significant decreases | Word Recognition Sensitivity Index, LS mean difference to placebo (Study Per-Protocol, 1 g, Day 28, p=0.027): statistically significant decreases | Picture Recognition Sensitivity Index, LS mean difference vs placebo (Study Per-Protocol, 1 g, Day 28 at AM 2, p=0.020): statistically significant decreases versus placebo | Picture Recognition Sensitivity Index, LS mean difference vs placebo (Study Per-Protocol, 1 g, Day 28 at PM 2, p=0.026): statistically significant decreases versus placebo | Quality of Episodic Secondary Memory, LS mean difference vs placebo (Study Per-Protocol, 1 g, p=0.043): statistically significant decreases versus placebo | Immediate Word Recall Accuracy, LS mean difference to placebo (Study Per-Protocol, 2 g, AM 1, p=0.029): statistically significant decreases | Immediate Word Recall Accuracy, LS mean difference to placebo (Study Per-Protocol, 2 g, Day 28, p=0.017): statistically significant decreases | Self-Rated Alertness, LS mean difference vs placebo (Study Per-Protocol, 2 g, Day 28, p=0.035): statistically significant decrease in ratings | Immediate Word Recall Accuracy, LS mean difference to placebo (Study Per-Protocol, 2 g, Day 28 at AM 1, p=0.006): statistically significant decreases | Self-Rated Alertness, LS mean difference vs placebo (Study Per-Protocol, 2 g, Day 28 at AM 2, p=0.033): statistically significant decrease in ratings | Quality of Episodic Secondary Memory, LS mean difference vs placebo (Study Per-Protocol, 2 g, p=0.036): statistically significant decreases versus placebo | Word Recognition Sensitivity Index, LS mean difference to placebo (Study Per-Protocol, 4 g, Day 42, p=0.038): statistically significant decreases | Self-Rated Calmness, LS mean difference vs placebo (Study Per-Protocol, 4 g, Day 42 at PM 1, p=0.071): statistical trend for an increase in ratings versus placebo | Delayed Word Recall Accuracy (Study Per-Protocol, ANCOVA): no statistically significant effects of treatment | Digit Vigilance Speed (Study Per-Protocol, ANCOVA): no statistically significant effects of treatment | Immediate Word Recall Accuracy (Study Per-Protocol, ANCOVA): no statistically significant effects of treatment | Numeric Working Memory Speed (Study Per-Protocol, ANCOVA): no statistical significant effects of treatment | Picture Recognition Sensitivity Index (Study Per-Protocol, ANCOVA): no statistically significant effects of treatment | Picture Recognition Speed (Study Per-Protocol, ANCOVA): no statistical significant effects of treatment | Power of Attention (Study Per-Protocol, ANCOVA): no statistically significant effect of treatment | Quality of Episodic Secondary Memory (Study Per-Protocol, ANCOVA): no statistically significant effects of treatment | Self-Rated Alertness (Study Per-Protocol, ANCOVA): no statistically significant effect of treatment | Self-Rated Calmness (Study Per-Protocol, ANCOVA): no statistically significant effect of treatment | Simple Reaction Time (Study Per-Protocol, ANCOVA): no statistically significant effects of treatment | Spatial Working Memory Speed (Study Per-Protocol, ANCOVA): no statistical significant effects of treatment | Speed of Memory (Study Per-Protocol, ANCOVA): no statistical significant effects of treatment | Word Recognition Sensitivity Index (Study Per-Protocol, ANCOVA): no statistically significant effects of treatment | Word Recognition Speed (Study Per-Protocol, ANCOVA): no statistical significant effects of treatment | Self-Rated Contentment (Study Per-Protocol, ANCOVA, p<0.001): statistically significant treatment by day interaction | Choice Reaction Time (Study Per-Protocol, ANCOVA, p=0.013): statistically significant treatment by day interaction | Spatial Working Memory Sensitivity Index (Study Per-Protocol, ANCOVA, p=0.014): statistically significant treatment by day interaction | Quality of Working Memory (Study Per-Protocol, ANCOVA, p=0.021): statistically significant treatment by day interaction | Power of Attention, difference active vs placebo (Study Per-Protocol, any time-point): no difference between active treatment and placebo | Continuity of Attention [2]: no general pattern of effects | Numeric Working Memory Sensitivity Index [2]: only isolated improvements and declines in performance | Quality of Working Memory [2]: only isolated improvements and declines in performance | Self-Rated Calmness [2]: no differences between active treatment and placebo | Power of Attention (post-hoc vs corresponding placebo group, 4 g, Day 42): overall benefit versus the corresponding placebo | Self-Rated Alertness [3]: decreases in ratings | Self-Rated Contentment [3]: decreases in ratings | Choice Reaction Time (post-hoc vs corresponding placebo, 4 g, Day 42): superior to placebo at every time point | Spatial Working Memory Sensitivity Index (post-hoc vs corresponding placebo, 4 g, Day 42, Study PP Population): overall benefit for ethyl-EPA 4 g over placebo | Simple Reaction Time (post-hoc vs corresponding placebo, 4 g, PM 2 collapsed across days, several time-points on Days 14 and 42): improvements in performance | Choice Reaction Time (post-hoc vs corresponding placebo, 4 g, all study days): overall benefit versus corresponding placebo | Quality of Episodic Secondary Memory and contributing subtasks (post-hoc vs corresponding placebo, explained by pre-existing differences between groups): a number of decreases for ethyl-EPA | Subtask measures of Speed of Memory (post-hoc vs corresponding placebo, mostly 1 g): some signs of improvement in performance
